Data taken from PubChem BioAssay (NCI).
Where “and” joins values, the source holds several entries; their conditions need not be identical. Identical values can stand only once.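 Method: 48-hour compound exposure of cells in 96-well plates, five concentrations, linear interpolation of endpoints. GI50 = concentration required for 50% inhibition of growth. TGI: concentration producing complete growth inhibition.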

Legend:
Assay in all cases: DTP human tumour cell line panel, 48 h
SN12C renal = system: SN12C renal
T-47D breast = system: T-47D breast
NCI-H460 lung = system: NCI-H460 lung
EKVX NSCLC = system: EKVX NSCLC
OVCAR-5 ovarian = system: OVCAR-5 ovarian
SK-MEL-5 melanoma = system: SK-MEL-5 melanoma
NCI-H23 lung = system: NCI-H23 lung
RXF 393 renal = system: RXF 393 renal
HT29 colon = system: HT29 colon
A498 renal = system: A498 renal

| Structure (SMILES) | GI50 (SN12C renal) | TGI (SN12C renal) [µM] | GI50 (T-47D breast) | TGI (T-47D breast) [µM] | GI50 (NCI-H460 lung) | TGI (NCI-H460 lung) [µM] | GI50 (EKVX NSCLC) | TGI (EKVX NSCLC) [µM] | GI50 (OVCAR-5 ovarian) | TGI (OVCAR-5 ovarian) [µM] | GI50 (SK-MEL-5 melanoma) | TGI (SK-MEL-5 melanoma) | GI50 (NCI-H23 lung) | TGI (NCI-H23 lung) [µM] | GI50 (RXF 393 renal) | TGI (RXF 393 renal) | GI50 (HT29 colon) | TGI (HT29 colon) [µM] | GI50 (A498 renal) | TGI (A498 renal) [µM] |
| --- | --- | --- | --- | --- | --- | --- | --- | --- | --- | --- | --- | --- | --- | --- | --- | --- | --- | --- | --- | --- |
| Cc1cn2c(/C=C3/C(=O)Nc4ccc(O)cc43)c(C)nc2s1 | 3.79 µM | 41.4 | 2.64 µM | 25.5 | 2.56 µM | 14.5 | 12.9 µM | > 100 | 28.3 µM | > 100 | 1.4 µM | 7.74 µM | 7.12 µM | > 68.9 | 2.89 µM | > 72.5 µM | 2.47 µM | > 100 | 19.1 µM | 67.7 |
| CN(C)CC1CCC2=C(C1=O)C(c1ccc(Cl)c(Cl)c1)C1=C(CCC(CN(C)C)C1=O)O2 (stereo not given) | 14 µM | 30.2 | 2.05 µM | 7.9 | 10.3 µM | 24.6 | 18.2 µM | 34.1 | 20 µM | 36.6 | 15.2 µM | 29 µM | 3.6 µM | 11.9 | 9.18 µM | 22.5 µM | 8.57 µM | 22.4 | 14.3 µM | 27.4 |
| O=[N+]([O-])c1cc(Cl)cnc1Br | – | 7.82 | – | > 100 | – | 15.2 | – | 15.2 | – | 9.48 | – | 10.1 µM | – | 24.2 | – | 3.12 µM | – | 8.51 | – | 32 |
| O=C1NOC(c2ccc(O)cc2)(c2ccc(O)cc2)c2ccccc21 | > 100 µM | > 100 | > 100 µM | > 100 | > 100 µM | > 100 | > 100 µM | > 100 | > 100 µM | > 100 | > 100 µM | > 100 µM | > 100 µM | > 100 | > 100 µM | > 100 µM | > 100 µM | > 100 | > 100 µM | > 100 |
| NC(=O)c1ccc(-c2nc(-c3ccc4c(c3)OCO4)c(-c3ccccn3)[nH]2)cc1 | > 25 µM and 42.2 µM | > 100 | > 25 µM and 21.8 µM | > 100 | > 25 µM and 23.3 µM | > 84.7 | > 25 µM and 44.9 µM | > 100 | > 25 µM and 32 µM | > 100 | > 25 µM and 15.1 µM | > 25 µM and 29.2 µM | > 25 µM and 46.3 µM | > 100 | > 25 µM and 12.6 µM | > 25 µM and 49.4 µM | > 25 µM and 28.3 µM | > 93.8 | > 25 µM and 27.2 µM | > 79.3 |
| COc1cc(OC)c(C(=O)/C=C/c2cccc(C#N)c2)c(OC)c1 | 1.5 µM | 7.1 | 1.17 µM | 5.53 | 1.1 µM | 2.86 | 1.37 µM | 5.32 | 2.26 µM | 7.95 | 1.55 µM | 6.16 µM | 1.21 µM | 4.59 | 0.797 µM | 2.05 µM | 1.69 µM | 5.87 | 1.24 µM | 3.3 |
| CN1CCc2[nH]nc(-c3n[nH]c4c3CN(C)CC4)c2C1 | – | > 100 | – | > 100 | – | > 100 | – | > 100 | – | > 100 | – | > 100 µM | – | > 100 | – | > 100 µM | – | > 100 | – | > 100 |
| Cn1cccc1-c1cc(-c2ccc(Br)cc2)[nH]c(=O)c1C#N | > 100 µM | > 100 | > 100 µM | > 100 | > 100 µM | > 100 | 34.5 µM | > 100 | > 100 µM | > 100 | > 100 µM | > 100 µM | > 100 µM | > 100 | > 100 µM | > 100 µM | > 100 µM | > 100 | 54.4 µM | > 100 |
| CN(C)c1ccc(C(=NO)c2ccc(N(C)C)cc2)cc1 | 4.94 µM | > 100 | 5.59 µM | > 100 | 3.23 µM | > 100 | 3.28 µM | > 100 | 15.1 µM | > 100 | 1.57 µM | 4.74 µM | 5.42 µM | > 100 | 1.46 µM | 5.03 µM | 3.6 µM | > 100 | 2.57 µM | > 100 |
| CC1=C(CCC(C)NCc2ccc(OCCCN3CCCCC3)cc2)C(C)(C)CCC1 (stereo not given) | 1.87 µM | 3.95 | 1.63 µM | 3.65 | 1.53 µM | 3.28 | 1.61 µM | 3.94 | 1.91 µM | 4.11 | 1.68 µM | 3.06 µM | 1.73 µM | 3.82 | 1.6 µM | 3.06 µM | 0.384 µM | 1.38 | 1.43 µM | 2.95 |
| Cn1cc(-c2csc(-c3cn(CCCN4CCCCC4)c4ccccc34)n2)c2cccnc21 | 1.79 µM | 3.31 | 17.4 µM | 51.3 | 2.04 µM | 4 | 16.3 µM | 34.5 | 1.63 µM | 3.13 | 1.82 µM | 3.26 µM | 1.82 µM | 3.62 | 1.59 µM | 3.14 µM | 1.89 µM | 3.62 | 13.7 µM | 28.7 |
| OCCn1cnc2c(SCc3ccccc3)ncnc21 | – | > 100 | – | > 100 | – | > 100 | – | > 100 | – | > 100 | – | > 100 µM | – | > 100 | – | > 100 µM | – | > 100 | – | > 100 |
| Nc1ncnc2c1c(-c1ccc(Oc3ccccc3)cc1)nn2C[C@@H]1SSC[C@H]1O | 2.31 µM | 10.2 | 1.09 µM | 10.3 | 0.281 µM | 1.45 | 0.568 µM | 10.5 | 3.47 µM | 26.6 | 0.874 µM | 2.3 µM | 0.916 µM | 8.17 | 1.82 µM | 5.18 µM | 0.732 µM | 7.98 | 2.18 µM | 5.53 |
